Results on one molecule are retold here after article PMC12508156, “Non-canonical dihydrolipoyl transacetylase promotes chemotherapy resistance via mitochondrial tetrahydrofolate signaling” (Nature Communications, 2025).

In one test the test system is ATP. Briefly: Intracellular ATP level. The class given is cell-based, human. Details: unit not given here. As to the method:
(§1) Cellular metabolic states were examined through various assays. To gauge the levels of total intracellular or mitochondrial reactive oxygen species (ROS), cells were stained with CM-H2DCFDA or mitoSOX, respectively. Intracellular H2O2, NADPH, acetyl-CoA, and GSH/GSSG ratios were quantified using commercial assay kits as listed in the Reagents. Intracellular ATP levels were determined utilizing the ATP bioluminescent somatic cell assay and normalized to the total protein concentrations. The de novo synthesized RNA and proteins were assessed in cancer cells using commercial assays following the manufacturer’s protocols. In brief, O-propargyl-puromycin or uridine analog, 5-EU, was applied to stop translation or modify RNA. Polypeptides or modified RNA were measured using fluorescent azide with Ex/Em at 494/521 nm. PDC activity was determined by measuring the reduction of NAD+ to NADH during the conversion of pyruvate into acetyl-CoA.

For the next test, the system named is RNA synthesis. Briefly: Global RNA synthesis (5-EU labeling). The class given is cell-based, human. The arrangement: unit not given here. How it is done:
as §1

Where [1] appears, read: A549cisR, pLKO.1, n=1 (Figure 3B).
The mark [2] stands for this setting: A549cisR, pLKO.1, n=2 (Figure 3B).
Setting [3] is: A549cisR, pLKO.1, n=3 (Figure 3B).
Where [4] appears, read: A549cisR, shDLAT, n=1 (Figure 3B).
Where [5] appears, read: A549cisR, shDLAT, n=2 (Figure 3B).
Where [6] appears, read: A549cisR, shDLAT, n=3 (Figure 3B).
[7] abbreviates: KB-3-1cisR, pLKO.1, n=1 (Figure 3B).
Setting [8] is: KB-3-1cisR, pLKO.1, n=2 (Figure 3B).
Where [9] appears, read: KB-3-1cisR, pLKO.1, n=3 (Figure 3B).
Setting [10] is: KB-3-1cisR, shDLAT, n=1 (Figure 3B).
Where [11] appears, read: KB-3-1cisR, shDLAT, n=2 (Figure 3B).
Setting [12] is: KB-3-1cisR, shDLAT, n=3 (Figure 3B).

Consider `N.N.[Cl][Pt][Cl]` [cisplatin], for which the ATP level in the test with ATP (setting [1]) is 1.319; in the test with ATP (setting [2]), 1.28; in the test on ATP (setting [3]), 1.1923; in the test with ATP (setting [4]), 1.405; in the test with ATP (setting [5]) it was 1.318; with ATP (setting [6]) it was 1.292. Moreover, the ATP level amounted to 1.593 with ATP (setting [7]); 1.725 in the test on ATP (setting [8]); 1.722 in the test on ATP (setting [9]); 1.707 with ATP (setting [10]); 1.7048 in the test on ATP (setting [11]); 1.693 in the test with ATP (setting [12]). Moreover, the “Global RNA synthase” value with RNA synthesis (setting [1]) was determined as 35.2; in the test on RNA synthesis (setting [2]), 34.2; in the test with RNA synthesis (setting [3]) it was 34.8; with RNA synthesis (setting [4]), 36.6; in the test with RNA synthesis (setting [5]), 34; in the test on RNA synthesis (setting [6]) it was 33. Further, the “Global RNA synthase” value is 34.8 in the test on RNA synthesis (setting [7]); 33.4 with RNA synthesis (setting [8]); 32.4 with RNA synthesis (setting [9]); 33.6 in the test on RNA synthesis (setting [10]); 31.4 with RNA synthesis (setting [11]); 31.6 in the test on RNA synthesis (setting [12]).
